# Measurements published in paper PMC5833756, “A novel ruthenium complex with xanthoxylin induces S-phase arrest and causes ERK1/2-mediated apoptosis in HepG2 cells through a p53-independent pathway” (Cell Death & Disease, 2018).
# Read-outs that look alike come from different tables or passages of the source. Marks after values point to notes of the source that are not given here. Residues, ends and D or L forms follow the SMILES beside them. *: point of attachment. Cbz = O=C(OCc1ccccc1)*; CH2F = FC*
# How the values were obtained:
# HepG2 cells [1] = assay: DNA synthesis quantification (methyl-[3H]-thymidine incorporation); assay type: cell-based, human; details: HepG2, 12 μM
# Description: Cellular DNA synthesis was quantified by the incorporation of methyl-[^3H]-thymidine. Methyl-[^3H]-thymidine is a radiolabeled DNA precursor that is incorporated into newly synthesized DNA. Briefly, the complex was added along with 1 µCi of methyl-[^3H]-thymidine (PerkinElmer; Shelton, CT, USA) and incubated for 3 h. After this incubation period, cultures were harvested using a cell harvester (Brandel, Inc., Gaithersburg, MD, USA), and the amount of incorporated^3H-thymidine was determined using a liquid scintillation cocktail Hidex Maxilight (PerkinElmer Life Sciences; Groningen, GE, Netherlands) and a plate CHAMELEON V multilabel Counter (Mustionkatu 2, Turku, Finland). Mitoxantrone (Sigma-Aldrich) was used as the positive control.
# HepG2 cells [2] = assay: Trypan blue exclusion assay; assay type: cell-based, human
# SCC-4 = assay type: cell-based, human; details: SCC-4 (human oral squamous cell carcinoma), 72 h
# [3] = system: multicellular spheroids formed from HepG2 cells; assay: 3D multicellular spheroid culture, alamar blue; assay type: cell-based, human; details: HepG2 3D spheroids, 72 h
# Description: HepG2 cells were cultivated in 3D multicellular spheroids. Briefly, 100 μL of cell solution (0.5 × 10^6 cells/mL) was added to a 96-well plate with a cell-repellent surface (Greiner Bio-One, Kremsmünster, Austria) and cultured in complete medium plus 3% Matrigel (BD Biosciences, San Jose, CA, USA). Spheroids with stable structures formed after three days. Then, the spheroids were exposed to a range of drug concentrations for 72 h. The negative control received the vehicle that was used for diluting the complex tested. In the end of the experiment, morphological changes were examined by light microscopy (Olympus BX41, Tokyo, Japan) using Image-Pro software (Media Cybernetics, Inc. Silver Spring, USA), and cell viability was quantified by alamar blue assay as described above.
# HL-60 = assay type: cell-based, human; details: HL-60 (human promyelocytic leukemia), 72 h
# HepG2 = assay type: cell-based, human; details: HepG2 (human hepatocellular carcinoma), monolayer, 72 h
# B16-F10 = assay type: cell-based, mouse; details: B16-F10 (murine melanoma), 72 h
# PBMC = assay type: cell-based; details: PBMC (human peripheral blood mononuclear cells, non-cancer), 72 h
# K-562 = assay type: cell-based, human; details: K-562 (human chronic myelogenous leukemia), 72 h
# HCT116 = assay type: cell-based, human; details: HCT116 (human colon carcinoma), 72 h
# HSC-3 = assay type: cell-based, human; details: HSC-3 (human oral squamous cell carcinoma), 72 h
# HepG2 cells [4] = assay type: cell-based, human; details: DOX 2 µM, OXA 10 µM, RCX 12 µM
# Description: Briefly, the cells were harvested in a permeabilization solution containing 0.1% Triton X-100, 2 µg/mL PI, 0.1% sodium citrate and 100 µg/mL RNAse (all from Sigma-Aldrich) and incubated in the dark for 15 min at room temperature. Finally, cell fluorescence was measured by flow cytometry with a BD LSRFortessa cytometer using BD FACSDiva Software (BD Biosciences) and FlowJo Software 10 (FlowJo Lcc; Ashland, OR, USA). Ten thousand events were evaluated per experiment, and cellular debris was omitted from the analysis.
# MRC-5 = assay type: cell-based; details: MRC-5 (human lung fibroblast, non-cancer), 72 h
# HepG2 cells [5] = assay: Annexin V/PI staining assay (flow cytometry)
# Description: For apoptosis detection, we used the FITC Annexin V Apoptosis Detection Kit I (BD Biosciences), and the analysis was performed according to the manufacturer’s instructions. Briefly, cells were washed twice with saline and then resuspended in 100 μL of binding buffer with 5 μL of PI and 5 μL of FITC Annexin V. The cells were gently mixed by vortexing and incubated for 15 min at room temperature in the dark. Afterwards, 400 μL of binding buffer was added to each tube, and the cell fluorescence was determined by flow cytometry, as described above. The percent of viable, early apoptotic, late apoptotic and necrotic cells were determined. […] The cells were then trypsinized, and the FITC Annexin V Apoptosis Detection assay was conducted as described above.
# [6] = system: panel of 15 cancer cell lines and 3 non-cancer cells; assay: Alamar blue cytotoxicity assay, whole panel; assay type: cell-based; details: any cells of the panel, 72 h
# Description: A panel of 15 cancer cell lines, 3 non-cancer cells and 1 mutant and its parental cell line were selected for this study, as detailed in Table S5. The cells were cultured in RPMI 1640 medium (Gibco-BRL, Gaithersburg, MD, USA) with 10% fetal bovine serum (Life, Carlsbad, CA, USA), 2 mM L-glutamine (Vetec Química Fina, Duque de Caxias, RJ, Brazil) and 50 μg/mL gentamycin (Life, Carlsbad, CA, USA). Adherent cells were collected by treatment with 0.25% trypsin EDTA solution (Gibco-BRL). All cell lines were cultured in flasks at 37 °C in 5% CO2 and subcultured every 3–4 days to maintain exponential growth. All cell lines were tested for mycoplasma using a mycoplasma stain kit (Sigma-Aldrich) to validate the use of cells free from contamination. […]
# Cell viability was quantified colorimetrically using the alamar blue assay according to Ahmed et al.[34]. […] Absorbance was measured at 570 nm and 600 nm using the SpectraMax 190 Microplate Reader (Molecular Devices, Sunnyvale, CA, USA), and the drug effect was quantified as a percent of the absorbance of the control-treated cells.
# BAD KO SV40 MEF = assay type: cell-based, mouse; details: Mus musculus, 72 h
# WT SV40 MEF = assay type: cell-based, mouse; details: Mus musculus, 72 h
# [7] = DOX 0.3 mg/kg, 5-FU 10 mg/kg
# Description: (§1) HepG2 cells (1 × 10^7 cells per 500 µL) were implanted subcutaneously into the left front armpit of the mice. […] The treatments were initiated one day after the tumor cell injection. The animals were treated intraperitoneally (200 µL per animal) once daily for 21 consecutive days. On the 22nd day, the animals were anesthetized, and peripheral blood samples were collected from the brachial artery. Animals were euthanized by anesthetic overdose, and tumors were excised and weighed.
# To assess the toxicological effects, mice were weighed at the beginning and at the end of the experiment. […] Hematological analysis was performed using light microscopy. Livers, kidneys, lungs and hearts were removed, weighed and examined for any signs of gross lesions, color changes and/or hemorrhages. After gross macroscopic examination, the tumors, livers, kidneys, lungs and hearts were fixed in 4% formalin buffer and embedded in paraffin. Tissue sections were stained with hematoxylin and eosin chromogens, and a pathologist performed the analysis under a light microscope.
# HepG2 cell xenografts = assay: Human hepatocellular carcinoma xenograft model; assay type: in vivo, C.B-17 SCID mice; details: 0.3 mg/kg doxorubicin, 10 mg/kg 5-fluorouracil, i.p. once a day for 21 days
# Description: Animals were housed in cages with free access to food and water. All animals were kept under a 12:12 h light-dark cycle (lights on at 6:00 a.m.). The local Animal Ethics Committee approved the experimental protocol (number 06/2015).
# as §1
# [8] = peripheral blood, i.p. 21 days, RCX 2.5 mg/kg
# [9] = HepG2, 2 h pretreatment (50 µM Z-VAD(Ome)-FMK, 20 µM Z-IETD-FMK, 20 µM Z-LEHD-FMK, 5 µM U-0126, 5 µM SP 600125, 5 µM PD 169316, 10 µM cyclic pifithrin-α), then 12 µM RCX 48 h
# 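For Final body weight in this document: mice bearing subcutaneous HepG2 xenografts, given intraperitoneal doses once daily for 21 days, weighed at start and end, blood leukocytes counted by light microscopy on day 22.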
# 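For Heart relative weight in this document: mice bearing subcutaneous HepG2 xenografts, given intraperitoneal doses once daily for 21 days, weighed at start and end, blood leukocytes counted by light microscopy on day 22.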
# 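For Initial body weight in this document: mice bearing subcutaneous HepG2 xenografts, given intraperitoneal doses once daily for 21 days, weighed at start and end, blood leukocytes counted by light microscopy on day 22.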
# 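For Kidney relative weight in this document: mice bearing subcutaneous HepG2 xenografts, given intraperitoneal doses once daily for 21 days, weighed at start and end, blood leukocytes counted by light microscopy on day 22.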
compound,measurement,setting,value
O=C1c2c(O)ccc(O)c2C(=O)c2c(NCCNCCO)ccc(NCCNCCO)c21 [Mitoxantrone],reduction of DNA synthesis,HepG2 cells [1],55.2%
CC(=O)N[C@@H](CS)C(=O)O [N-acetyl-L-cysteine],protection against RCX-induced reduction in viable cells,"HepG2 cells [2]; HepG2, 1 h pretreatment with 5 mM NAC, then 12 µM RCX for 24 h",did not prevent the reduction in the number of viable cells
"O=C1[O][Pt]2([NH][C@@H]3CCCC[C@H]3[NH]2)[O]C1=O [OXA, oxaliplatin]",IC50,SCC-4,7.7 µM
same,change in the number of viable cells,"HepG2 cells [2]; HepG2, 24 h, DOX 2 µM, OXA 10 µM",reduced the number of viable cells
same,IC50,[3],6.6 µM
same,IC50,HL-60,0.6 µM
same,IC50,HepG2,2.2 µM
same,IC50,B16-F10,2.2 µM
same,IC50,PBMC,9.4 µM
same,IC50,K-562,1 µM
same,IC50,HCT116,4.1 µM
same,IC50,HSC-3,3.3 µM
same,DNA content S,"HepG2 cells [4]; HepG2, 12 h",12.9 ± 4.4%
same,DNA content S,"HepG2 cells [4]; HepG2, 24 h",18.5 ± 1.4%
same,DNA content S,"HepG2 cells [4]; HepG2, 48 h",21.2 ± 1.7 %
same,DNA content S,"HepG2 cells [4]; HepG2, 72 h",16.2 ± 1.1%
same,IC50,MRC-5,9.5 µM
N#CC(=C(/N)Sc1ccccc1N)/C(C#N)=C(/N)Sc1ccccc1N [U-0126],effect of inhibitor pretreatment on RCX-induced apoptosis,HepG2 cells [5],prevented RCX-induced apoptosis
"COc1cc(O)c(C(C)=O)c(OC)c1 [xanthoxylin, 2-hydroxy-4,6-dimethoxyacetophenone]",IC50,[6],> 127 µM
"O=c1[nH]cc(F)c(=O)[nH]1 [5-FU, 5-fluorouracil]",IC50,BAD KO SV40 MEF,7.3 µM
same,IC50,WT SV40 MEF,1.7 µM
same,Initial body weight,"[7]; before treatment, RCX 2.5 mg/kg groups",25.2 ± 0.4 g
same,Final body weight,"[7]; i.p. 21 days, RCX 2.5 mg/kg",24.1 ± 1.7 g
same,Heart relative weight,"[7]; i.p. 21 days, RCX 2.5 mg/kg",0.5 ± 0.2 g/100 g body weight
same,Kidney relative weight,"[7]; i.p. 21 days, RCX 2.5 mg/kg",1.2 ± 0.4 g/100 g body weight
same,Liver relative weight,"[7]; i.p. 21 days, RCX 2.5 mg/kg",3.4 ± 0.7 g/100 g body weight
same,Lung relative weight,"[7]; i.p. 21 days, RCX 2.5 mg/kg",0.6 ± 0.2 g/100 g body weight
same,Survival,"[7]; i.p. 21 days, RCX 2.5 mg/kg",9/15
same,Differential leukocytes: Eosinophils,[7]; [8],1.0%
same,Differential leukocytes: Lymphocytes,[7]; [8],32.8%
same,Differential leukocytes: Monocytes,[7]; [8],1.3%
same,Differential leukocytes: Neutrophils,[7]; [8],65.0%
same,Erythrocytes,[7]; [8],8.4 ± 0.5 10^6cells/μL
same,Total leukocytes,[7]; [8],1.8 ± 0.3* 10^3cells/μL
same,reduction of tumor weight,HepG2 cell xenografts,40.3%
COC(=O)CC[C@H](NC(=O)[C@H](CC(C)C)NC(=O)OCc1ccccc1)C(=O)N[C@@H](Cc1cnc[nH]1)C(=O)N[C@@H](CC(=O)OC)C(=O)CF [Z-LEHD-FMK] (Cbz-LE(OMe)HD(OMe)-CH2F),effect of inhibitor pretreatment on RCX-induced apoptosis,HepG2 cells [5]; [9],prevented the RCX-induced apoptosis
CC[C@H](C)[C@H](NC(=O)OCc1ccccc1)C(=O)N[C@@H](CCC(=O)OC)C(=O)N[C@H](C(=O)N[C@@H](CC(=O)OC)C(=O)CF)[C@@H](C)O [Z-IETD-FMK] (Cbz-IE(OMe)TD(OMe)-CH2F),effect of inhibitor pretreatment on RCX-induced apoptosis,HepG2 cells [5],prevented the RCX-induced apoptosis
Oc1c2ccccc2c2c3c(cccc13)N=N2 [SP 600125],effect of inhibitor pretreatment on RCX-induced apoptosis,HepG2 cells [5]; [9],did not prevent RCX-induced apoptosis
COC(=O)C[C@H](NC(=O)[C@H](C)NC(=O)[C@@H](NC(=O)OCc1ccccc1)C(C)C)C(=O)CF [Z-VAD(OMe)-FMK] (Cbz-Val-Ala-Asp(OMe)-CH2F),effect of inhibitor pretreatment on RCX-induced apoptosis,HepG2 cells [5],prevented the RCX-induced apoptosis
Cc1ccc(-c2cn3c4c(sc3n2)CCCC4)cc1 [cyclic pifithrin-α],effect of inhibitor pretreatment on RCX-induced apoptosis,HepG2 cells [5],did not prevent the RCX-induced apoptosis
